Reference: the NIST ThermoML archive (doi:10.1021/je030218b)
Numbers after ± are expanded uncertainties.

Columns and labels:
[1] = refractive index (Na D-line) (dimensionless); details: 298.15 K; 101.33 kPa; Liquid; Standard Abbe refractometry
[2] = Liquid; for mass density / speed of sound: 298.15 K, 101.33 kPa
[3] = xn = mol fraction of the nth substance listed; details: 298.15 K, 101 kPa, Liquid
[4] = refractive index (Na D-line) (dimensionless); xn = mol fraction of the nth substance listed; details: 298.15 K, 101 kPa, Liquid, Standard Abbe refractometry

CC(C)CO [2-methyl-1-propanol]
Details	mass density [kg/m3]	refractive index	speed of sound [m/s]
[1]	–	1.3937 ± 0.00072	–
[2]	797.84 ± 0.46	–	1185.6 ± 1.7

Details	vapor or sublimation pressure [kPa]
[2], 381 K	101.3 ± 1.1

CC(C)CO [2-methyl-1-propanol] + CCOC(C)=O
Details	refractive index, [4]	speed of sound, [3] [m/s]
x2 = 0.052	1.39253 ± 0.00072	1186.1 ± 1.7
x2 = 0.104	1.39136 ± 0.00072	1184.4 ± 1.7
x2 = 0.155	1.39012 ± 0.00072	1182.9 ± 1.7
x2 = 0.206	1.3889 ± 0.00072	1181.5 ± 1.7
x2 = 0.258	1.38753 ± 0.00072	1179.3 ± 1.7
x2 = 0.308	1.38611 ± 0.00072	1177.5 ± 1.7
x2 = 0.359	1.3847 ± 0.00072	1175.6 ± 1.7
x2 = 0.41	1.3833 ± 0.00072	1174.2 ± 1.7
x2 = 0.46	1.38169 ± 0.00072	1171.3 ± 1.7
x2 = 0.51	1.3803 ± 0.00072	1169 ± 1.6
x2 = 0.56	1.37842 ± 0.00072	1165.2 ± 1.6
x2 = 0.609	1.37674 ± 0.00072	1163 ± 1.6
x2 = 0.659	1.37505 ± 0.00072	1160.4 ± 1.6
x2 = 0.708	1.37301 ± 0.00072	1158.2 ± 1.6
x2 = 0.757	1.37111 ± 0.00072	1155.3 ± 1.6
x2 = 0.806	1.36884 ± 0.00072	1152.8 ± 1.6
x2 = 0.855	1.36675 ± 0.00072	1150.1 ± 1.6
x2 = 0.904	1.36431 ± 0.00072	1147.4 ± 1.6
x2 = 0.952	1.36189 ± 0.00072	1144.7 ± 1.6

CCO [ethanol]
Details	mass density [kg/m3]	refractive index	speed of sound [m/s]
[1]	–	1.35916 ± 0.00072	–
[2]	785.36 ± 0.48	–	1143.1 ± 1.6

Details	vapor or sublimation pressure [kPa]
[2], 351.5 K	101.3 ± 1.1

CCOC(C)=O [ethyl acetate]
Details	mass density [kg/m3]	refractive index	speed of sound [m/s]
[1]	–	1.3698 ± 0.00072	–
[2]	894.24 ± 0.38	–	1137.7 ± 1.6

Details	vapor or sublimation pressure [kPa]
[2], 350.25 K	101.3 ± 1.1

CCCCCO [pentan-1-ol]
Details	mass density [kg/m3]	refractive index	speed of sound [m/s]
[1]	–	1.4077 ± 0.00072	–
[2]	810.96 ± 0.44	–	1273.3 ± 1.8

Details	vapor or sublimation pressure [kPa]
[2], 410.59 K	101.3 ± 1.1

CCCCCO [pentan-1-ol] + CCOC(C)=O
Details	mass density, [3] [kg/m3]	refractive index, [4]	speed of sound, [3] [m/s]
x2 = 0.05	814.16 ± 0.44	1.40579 ± 0.00072	1263.5 ± 1.8
x2 = 0.101	817.63 ± 0.43	1.40382 ± 0.00072	1253.8 ± 1.8
x2 = 0.15	821.07 ± 0.42	1.40193 ± 0.00072	1245 ± 1.7
x2 = 0.2	824.6 ± 0.42	1.40012 ± 0.00072	1236.5 ± 1.7
x2 = 0.251	828.3 ± 0.41	1.39803 ± 0.00072	1227.5 ± 1.7
x2 = 0.3	831.9 ± 0.4	1.39629 ± 0.00072	1219.9 ± 1.7
x2 = 0.35	835.73 ± 0.4	1.39423 ± 0.00072	1211.9 ± 1.7
x2 = 0.4	839.69 ± 0.39	1.3925 ± 0.00072	1204.5 ± 1.7
x2 = 0.45	843.69 ± 0.38	1.39052 ± 0.00072	1198.2 ± 1.7
x2 = 0.5	847.81 ± 0.38	1.38863 ± 0.00072	1190.5 ± 1.7
x2 = 0.549	851.89 ± 0.37	1.38676 ± 0.00072	1184.1 ± 1.7
x2 = 0.599	856.06 ± 0.36	1.38493 ± 0.00072	1178.8 ± 1.7
x2 = 0.65	860.53 ± 0.36	1.38303 ± 0.00072	1172.1 ± 1.7
x2 = 0.7	865.01 ± 0.35	1.38107 ± 0.00072	1166.8 ± 1.7
x2 = 0.749	869.4 ± 0.34	1.37919 ± 0.00072	1161.7 ± 1.6
x2 = 0.8	874.19 ± 0.34	1.37733 ± 0.00072	1157.1 ± 1.6
x2 = 0.85	879 ± 0.33	1.37548 ± 0.00072	1152.2 ± 1.6
x2 = 0.898	883.69 ± 0.32	1.3736 ± 0.00072	1148 ± 1.6
x2 = 0.947	888.68 ± 0.32	1.37188 ± 0.00072	1144.1 ± 1.6
